Source: patent US9234025B2, “Extracellular allosteric inhibitor binding domain from a tyrosine kinase receptor” (SANOFI, priority 2009, dated 2016)

Legend:
[1] = target: T1, FGF1 (Homo sapiens, UniProt P05230); assay: ITC or STD-NMR, FGF1; type: binding
T1 construct: FGF1 (amino acids: 16-155); made in house
Method: The extracellular domain (ECD; amino acids: 39-358) of the human FGFR1 gene (P11362) was PCR amplified and cloned into E. coli vector pETTEV (with a N-terminal His-tag followed by a TEV protease cleavage site), using NdeI and BamHI restriction sites. For protein production, the resulting plasmid (pET FGFR1 D1D2D3) was transformed into E. coli BL21(DE3) (Novagene). Cells were grown at 37° C. until the OD600 reached 0.6 and recombinant protein production was induced by adding 1 mM IPTG (isopropyl-b-D-thiogalactopyranoside). After 4 hours induction, cells were harvested and stored at −80° C. until usage. The cell pellet (1 L culture) was thawed and resuspended in 50 ml buffer 1 (20 mM Tris/HCl, pH 7.5, 200 mM NaCl) containing lysozyme (2 mg), and 40 U benzonase (Merck). […] Complex formation was analyzed by size exclusion chromatography and subsequent analysis on SDS-PAGE.
All STD- and 1D-NMR experiments were carried out on a BRUKER three-channel DRX600 and on a BRUKER four-channel DRX800 spectrometer at the standard temperature of 298 K and were referenced to the internal standard 3-Trimethyl-2,2,3,3-tetradeuteropropionate-sodium salt (TSP). […] For protein ligand 1D STD NMR measurements spectra were recorded with 1 mM ligand SSR128129E (100 mM DMSO stock solution) and […] protein with weak 2s RF irradiation on separated protein methyl resonances. […]

[2] = target: T2, FGFR2^∂23 (Homo sapiens, UniProt P21802); assay: Fourier transform infrared (FTIR) measurement, FGFR2 D2-3; conditions: maximum around 1,640 cm^−1, 100 μM SSR
T2 construct: FGFR2^∂23 (consisting of domain D2 and 3); made in house
Method: Fourier transform infrared measurements were performed using a Bruker Tensor 37 FT-IR spectrometer equipped with an AquaSpec flowcell. The sample compartment was thermostatted to 25° C., 100 spectra were averaged for a good signal to noise ratio. Proteins were purified as described above. Immediately after the gelfiltration, the proteins were dialysed overnight in the same preparation of buffer (10 mM Hepes pH 7.2, 150 mM NaCl) in the presence or absence of SSR. Dialysis buffer samples were used to substract background signal. The analysis was performed using the OPUS software package, provided by Bruker. Interpretation of the results was performed as described {Barth, 2002 #60}.

[3] = target: T3, FGFR2^WT (Homo sapiens, UniProt P21802); assay: FGF2-induced ERK1/2 phosphorylation in HEK293 cells, FGFR2 WT; type: cell-based; conditions: stable HEK293 FGFR2^WT cells; FGF2 0.5 ng/ml 5 min; average±sem, three experiments; read-out: IC50 value, inhibition of FGF2 induced ERK1/2 phosphorylation
T3 construct: expressed in transfected cells
Method: HEK293 cells were either transiently of stably transfected (using FuGENE 6, Roche) with hFGFR2IIIca or hFGFR2IIIca-Y328D cloned in pcDNA3 (Invitrogen). Stably transfected cells were grown in G418 (400 μg/ml) containing medium. Before stimulation, the cells were starved overnight in DMEM (0% serum), and pre-incubated with […] at the required concentration. The cells were subsequently stimulated with FGF2 (concentration between 0.5-10 ng/ml) for 5 min at 37° C. with or without SSR or SU5402 at 1 μM. After washing with ice-cold phosphate-buffered saline containing phosphatase inhibitors (Roche), cells were lysed in RIPA buffer (Tris 30 mM HCl pH 7.5, 150 mM NaCl, 1 mM EDTA, 1% triton-X, 0.5% w/v deoxycholate, containing phophatase and protease inhibitors as described by the manufacturer (Roche)). Cell lysates were centrifuged at 12,000 g for 10 min, and the supernatants were collected. Proteins were separated on Novex polyacrylamide gels (Invitrogen, Carlsbad, Calif.) and subsequently transferred onto Hybond ECL nitrocellulose membranes (Amersham Pharmacia). Following incubation with 5% non-fat milk powder in PBS, the membranes were incubated overnight at 4° C. with the following antibodies: phospho-ERK1/2 (CST:9101), phospho-FRS2 (CST:3861), phospho-PLCγ (CST:2821) and FGFR2 (F0300, Sigma).

T2 sequence (P21802 148-366 limits assumed): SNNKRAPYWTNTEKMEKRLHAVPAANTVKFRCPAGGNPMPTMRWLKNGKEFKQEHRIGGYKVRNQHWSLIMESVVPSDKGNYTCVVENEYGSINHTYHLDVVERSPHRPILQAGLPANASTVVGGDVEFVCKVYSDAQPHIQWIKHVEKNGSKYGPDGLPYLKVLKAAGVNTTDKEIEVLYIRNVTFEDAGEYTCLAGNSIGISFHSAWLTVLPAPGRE
T3 sequence (P21802 22-821): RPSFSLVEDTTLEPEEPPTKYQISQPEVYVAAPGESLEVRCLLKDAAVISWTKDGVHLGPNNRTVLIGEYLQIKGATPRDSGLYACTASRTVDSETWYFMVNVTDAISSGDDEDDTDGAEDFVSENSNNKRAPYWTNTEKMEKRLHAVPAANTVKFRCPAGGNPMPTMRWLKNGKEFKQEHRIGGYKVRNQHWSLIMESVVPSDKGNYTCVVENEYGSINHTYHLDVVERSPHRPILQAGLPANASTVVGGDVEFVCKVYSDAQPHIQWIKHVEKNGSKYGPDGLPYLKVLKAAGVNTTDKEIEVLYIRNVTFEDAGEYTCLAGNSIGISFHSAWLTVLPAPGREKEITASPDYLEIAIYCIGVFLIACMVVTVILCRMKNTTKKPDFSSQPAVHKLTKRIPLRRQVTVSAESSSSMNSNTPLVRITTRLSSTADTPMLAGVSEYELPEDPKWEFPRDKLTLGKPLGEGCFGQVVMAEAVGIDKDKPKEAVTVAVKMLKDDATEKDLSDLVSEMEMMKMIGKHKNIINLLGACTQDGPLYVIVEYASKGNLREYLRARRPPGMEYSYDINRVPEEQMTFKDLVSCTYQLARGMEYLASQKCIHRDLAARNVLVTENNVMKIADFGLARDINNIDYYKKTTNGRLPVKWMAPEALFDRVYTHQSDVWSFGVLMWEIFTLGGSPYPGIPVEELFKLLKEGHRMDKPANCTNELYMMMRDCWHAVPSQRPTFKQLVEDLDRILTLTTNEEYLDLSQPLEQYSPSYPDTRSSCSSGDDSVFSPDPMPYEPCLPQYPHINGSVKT
T1 sequence (P05230 16-155, species assumed): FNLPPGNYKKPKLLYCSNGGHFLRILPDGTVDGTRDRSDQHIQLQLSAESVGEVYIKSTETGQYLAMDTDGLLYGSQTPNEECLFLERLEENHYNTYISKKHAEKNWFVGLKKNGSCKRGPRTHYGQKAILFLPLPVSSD

Compound: COc1c(C)c(C(=O)c2ccc(N)c(C(=O)[O-])c2)n2ccccc12.[Na+] [SSR]
- binding to FGF1 [1]: failed to bind
- change of FTIR spectrum (conformational change) [2]: increase in the amplitude of the amide I band
- IC50 [3]: 28 ± 12 nM
